Data on 16 molecules can be found in patent US20050065202A1, “Use of sulphonamide derivatives for the manufacture of a medicament for the prophylaxis and/or treatment of disorders of food ingestion” (priority 2003, published 2005).

The target in data set [1] is T1, 5HT6-human recombinant receptor (Homo sapiens, UniProt P50406).
T1 construct: purchased Receptor Biology; host or cells: HEK-293 cell membranes
Nature of the data set: Binding to serotonin receptor 5HT6 ([3H]-LSD displacement, HEK-293 cell membranes). As to conditions: for inhibition at 1 µM: read-out: % Inhibition 10^−6 M. The procedure: Binding to Serotonin Receptor 5HT6
The respective part of the literature description is hereby incorporated by reference and forms part of the disclosure. […] Tests were made in triplicate.
The binding of the inventively used sulphonamide derivatives of general formula (I) was determined as described above.

Counter-ions that a name gives are not always drawn.

T1 sequence (P50406 whole entry): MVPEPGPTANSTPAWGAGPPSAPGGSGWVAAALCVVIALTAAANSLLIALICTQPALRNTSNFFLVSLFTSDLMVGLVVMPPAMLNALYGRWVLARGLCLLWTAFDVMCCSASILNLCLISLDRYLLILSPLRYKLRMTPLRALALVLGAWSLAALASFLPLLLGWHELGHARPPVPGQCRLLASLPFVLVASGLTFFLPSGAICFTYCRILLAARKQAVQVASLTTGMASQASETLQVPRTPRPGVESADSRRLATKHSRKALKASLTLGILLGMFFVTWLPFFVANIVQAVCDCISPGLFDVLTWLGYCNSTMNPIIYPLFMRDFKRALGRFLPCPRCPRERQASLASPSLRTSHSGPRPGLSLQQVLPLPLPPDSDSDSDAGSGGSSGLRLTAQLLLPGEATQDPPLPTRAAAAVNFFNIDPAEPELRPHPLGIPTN

Consider `CN(C)CCc1c[nH]c2ccc(NS(=O)(=O)c3cccc4ccccc34)cc12` [Example 8, N-[3-(2-dimethylaminoethyl)-1H-indol-5-yl]naphthalene-1-sulphonamide], for which the melting point (in general, the temperature of the solid-liquid transition) lay within 203 to 205 °C. Moreover, in data set [1], the Ki (usually a dissociation constant, usually derived from enzyme kinetics or from competition with a known ligand) is 0.76 nM and the inhibition – broadly, the relative decrease from the control value, in per cent – at 1 µM was determined as 94.5 ± 7%.
`CCN(CC)CCc1c[nH]c2ccc(NS(=O)(=O)c3ccc4ccccc4c3)cc12` [Example 17, N-[3-(2-diethylaminoethyl)-1H-indol-5-yl]naphthalene-2-sulphonamide]: the melting point is 172 to 173 °C. In data set [1], the inhibition at 1 µM stood at 102%.
As to `CN1CCC(c2c[nH]c3ccc(NS(=O)(=O)c4cccc5ccccc45)cc23)CC1` [Example 13, N-[3-(1-methylpiperidin-4-yl)-1H-indol-5-yl]naphthalene-1-sulphonamide hydrochloride], the inhibition at 1 µM in data set [1] amounted to 98.3%.
In the case of `CCN(CC)CCc1c[nH]c2ccc(NS(=O)(=O)c3sc4ccc(Cl)cc4c3C)cc12` [Example 1, N-[3-(2-diethylaminoethyl)-1H-indol-5-yl]-5-chloro-3-methylbenzo[b]thiophene-2-sulphonamide], the melting point was 170 to 173 °C. Besides, in data set [1], the Ki was determined as 0.28 nM and the inhibition at 1 µM came out at 98.1 ± 4%.
`Cc1c(S(=O)(=O)Nc2ccc3[nH]cc(C4CCN(C)CC4)c3c2)sc2ccc(Cl)cc12` [Example 11, N-[3-(1-methylpiperidin-4-yl)-1H-indol-5-yl]-5-chloro-3-methylbenzo[b]thiophene-2-sulphonamide hydrochloride]: in data set [1], the Ki is 0.98 nM and the inhibition at 1 µM came to 101%.
Regarding `CCN(CC)CCc1c[nH]c2ccc(NS(=O)(=O)c3ccc(Cl)s3)cc12` [Example 6, N-[3-(2-diethylaminoethyl)-1H-indol-5-yl]-5-chlorothiophene-2-sulphonamide], the melting point lay within 180 to 181 °C. In data set [1], the Ki came out at 8.7 nM and the inhibition at 1 µM was 97.6 ± 1.8%.
With `CN(C)CCc1c[nH]c2ccc(NS(=O)(=O)c3c(Cl)nc4sccn34)cc12` [Example 9, N-[3-(2-dimethylamino-ethyl)-1H-indol-5-yl]-6-chloroimidazo[2,1-b]thiazol-5-sulphonamide], the inhibition at 1 µM in data set [1] was 96.8 ± 3.7%.
Consider `CN1CCC(c2c[nH]c3ccc(NS(=O)(=O)c4ccc(-c5ccccc5)cc4)cc23)CC1` [Example 15, N-[3-(1-methylpiperidin-4-yl)-1H-indol-5-yl]-4-phenylbenzenesulphonamide], for which the melting point was 247 to 248 °C.
The molecule `Cc1c(S(=O)(=O)Nc2ccc3[nH]cc(CCN(C)C)c3c2)sc2ccc(Cl)cc12` [Example 7, N-[3-(2-dimethylaminoethyl)-1H-indol-5-yl]-5-chloro-3-methylbenzo[b]thiophene-2-sulphonamide] showed a melting point of 226 to 227 °C. In data set [1], the Ki is 0.13 nM and the inhibition at 1 µM came to 103 ± 7.9%.
The molecule `CCN(CC)CCc1c[nH]c2ccc(NS(=O)(=O)c3cccc4ccccc34)cc12` (as salt: HCl) [Example 3, Hydrochloride N-[3-(2-diethylaminoethyl)-1H-indol-5-yl]naphthalene-1-sulphonamide] showed a melting point of 255 to 257 °C.
On to `CCN(CC)CCc1c[nH]c2ccc(NS(=O)(=O)c3ccc(-c4ccccc4)cc3)cc12` [Example 5, N-[3-(2-diethylaminoethyl)-1H-indol-5-yl]-4-phenylbenzenesulphonamide], for which the melting point fell in the range of 161 to 163 °C. Also, the inhibition at 1 µM in data set [1] stood at 101.2 ± 0.1%.
For `CN1CCC(c2c[nH]c3ccc(NS(=O)(=O)c4cccc5ccccc45)cc23)CC1` (as salt: HCl) [Example 13, N-[3-(1-methylpiperidin-4-yl)-1H-indol-5-yl]naphthalene-1-sulphonamide hydrochloride], the melting point was 212 °C (dec.).
Consider `CCN(CC)CCc1c[nH]c2ccc(NS(=O)(=O)c3cc(Cl)cc(Cl)c3)cc12` [Example 4, N-[3-(2-diethylaminoethyl)-1H-indol-5-yl]-3,5-dichlorobenzenesulphonamide], for which the melting point fell in the range of 168 to 170 °C. Moreover, the inhibition at 1 µM in data set [1] was 96.2 ± 0.6%.
For the molecule `CCN(CC)CCc1c[nH]c2ccc(NS(=O)(=O)c3cccc4ccccc34)cc12` [Example 3, Hydrochloride N-[3-(2-diethylaminoethyl)-1H-indol-5-yl]naphthalene-1-sulphonamide], the inhibition at 1 µM in data set [1] stood at 96.6 ± 5.2%.
As to `CN1CCC(c2c[nH]c3ccc(NS(=O)(=O)c4cccc5cccnc45)cc23)CC1` [Example 16, N-[3-(1-methylpiperidin-4-yl)-1H-indol-5-yl]quinoline-8-sulphonamide], the melting point is 280 °C (dec.).
On the same count and under the same terms, in the case of `CN1CCC(c2c[nH]c3ccc(NS(=O)(=O)c4ccc(Cl)s4)cc23)CC1` [Example 14, N-[3-(1-methylpiperidin-4-yl)-1H-indol-5-yl]-5-chlorothiophene-2-sulphonamide] it was 284 °C (dec.).
